In ChEMBL document CHEMBL1132549, “Design and structure-activity relationship of a new class of potent VEGF receptor tyrosine kinase inhibitors” (J Med Chem, 1999):
Calls of active or inactive are those of the source. The calls are words filed in the database; no cut-off is given here.

Experiments:
[1] = target: Vascular endothelial growth factor receptor 1 (Homo sapiens, UniProt P17948)
[2] = target: Fibroblast growth factor receptor 1 (Homo sapiens, UniProt P11362)
[3] = target: Vascular endothelial growth factor receptor 2 (Homo sapiens, UniProt P35968)
Vascular endothelial growth factor receptor 2, sequence (P35968 whole entry): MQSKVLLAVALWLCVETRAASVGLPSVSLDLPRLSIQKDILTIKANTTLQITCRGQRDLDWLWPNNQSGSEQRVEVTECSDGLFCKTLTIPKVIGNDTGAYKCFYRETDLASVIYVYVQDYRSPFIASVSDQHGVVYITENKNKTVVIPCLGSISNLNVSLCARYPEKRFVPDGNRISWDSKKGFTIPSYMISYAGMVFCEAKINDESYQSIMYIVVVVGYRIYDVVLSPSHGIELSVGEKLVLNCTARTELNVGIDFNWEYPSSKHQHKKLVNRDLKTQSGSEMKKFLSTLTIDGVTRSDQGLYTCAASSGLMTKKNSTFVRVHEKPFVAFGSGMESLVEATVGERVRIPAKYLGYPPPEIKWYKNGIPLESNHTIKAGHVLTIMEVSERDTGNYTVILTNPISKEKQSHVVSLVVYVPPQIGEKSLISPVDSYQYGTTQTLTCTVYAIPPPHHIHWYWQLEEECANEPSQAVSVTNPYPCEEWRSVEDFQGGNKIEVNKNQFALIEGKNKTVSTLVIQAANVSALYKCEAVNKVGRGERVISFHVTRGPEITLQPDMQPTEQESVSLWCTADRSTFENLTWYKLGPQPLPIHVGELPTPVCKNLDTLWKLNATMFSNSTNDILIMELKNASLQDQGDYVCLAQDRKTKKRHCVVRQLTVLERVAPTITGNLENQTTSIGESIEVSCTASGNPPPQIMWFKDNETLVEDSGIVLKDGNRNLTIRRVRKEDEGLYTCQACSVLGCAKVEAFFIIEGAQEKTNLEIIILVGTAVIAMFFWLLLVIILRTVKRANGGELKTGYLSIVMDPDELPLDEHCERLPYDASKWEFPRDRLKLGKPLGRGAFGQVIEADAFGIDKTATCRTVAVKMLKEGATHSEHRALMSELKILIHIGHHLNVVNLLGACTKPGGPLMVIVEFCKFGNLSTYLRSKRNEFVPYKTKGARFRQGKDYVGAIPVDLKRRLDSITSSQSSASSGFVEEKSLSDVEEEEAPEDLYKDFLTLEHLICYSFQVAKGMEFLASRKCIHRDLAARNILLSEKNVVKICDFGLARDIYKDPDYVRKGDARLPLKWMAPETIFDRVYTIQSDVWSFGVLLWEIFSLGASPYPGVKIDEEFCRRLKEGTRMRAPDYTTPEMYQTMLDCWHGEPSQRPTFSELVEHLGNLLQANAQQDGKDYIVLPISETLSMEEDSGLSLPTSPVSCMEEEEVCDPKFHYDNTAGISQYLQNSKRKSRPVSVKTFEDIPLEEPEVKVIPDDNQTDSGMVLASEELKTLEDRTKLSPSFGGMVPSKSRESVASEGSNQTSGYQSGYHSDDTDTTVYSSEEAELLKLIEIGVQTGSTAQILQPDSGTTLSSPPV

[4] = Mouse plasma levels are obtained 6 hr after oral administration of 100 mg/kg of compound.; assay type: ADME, organism-based; parameters: dose 100 mg/kg, route oral; conditions: read-out: Plasma level
Rattus norvegicus [5] = assay: Percent inhibition of VEGF-mediated estradiol benzoate-induced rat uterus weight gain at 60 mg/kg oral dose; assay type: functional
[6] = Mouse plasma levels are obtained 24 hr after oral administration of 100 mg/kg of compound.; assay type: ADME, organism-based; parameters: dose 100 mg/kg, route oral; conditions: read-out: Plasma level
Rattus norvegicus [7] = assay: Percent inhibition of VEGF-mediated estradiol benzoate-induced rat uterus weight gain at 100 mg/kg oral dose; NA is Not Active; assay type: functional, organism-based; parameters: dose 100 mg/kg
[8] = target: Fibroblast growth factor receptor (Homo sapiens, UniProt P22607+P11362+P22455+P21802); conditions: huvec
[9] = target: Vascular endothelial growth factor receptor (Homo sapiens, UniProt P17948+P35916+P35968); conditions: huvec
HUVEC = assay: Inhibition of unstimulated HUVEC cell proliferation; assay type: functional, cell-based; conditions: Homo sapiens
Rattus norvegicus [10] = assay: Percent inhibition of VEGF-mediated estradiol benzoate-induced rat uterus weight gain at 100 mg/kg oral dose; assay type: functional

Fibroblast growth factor receptor 1, sequence (P11362 whole entry): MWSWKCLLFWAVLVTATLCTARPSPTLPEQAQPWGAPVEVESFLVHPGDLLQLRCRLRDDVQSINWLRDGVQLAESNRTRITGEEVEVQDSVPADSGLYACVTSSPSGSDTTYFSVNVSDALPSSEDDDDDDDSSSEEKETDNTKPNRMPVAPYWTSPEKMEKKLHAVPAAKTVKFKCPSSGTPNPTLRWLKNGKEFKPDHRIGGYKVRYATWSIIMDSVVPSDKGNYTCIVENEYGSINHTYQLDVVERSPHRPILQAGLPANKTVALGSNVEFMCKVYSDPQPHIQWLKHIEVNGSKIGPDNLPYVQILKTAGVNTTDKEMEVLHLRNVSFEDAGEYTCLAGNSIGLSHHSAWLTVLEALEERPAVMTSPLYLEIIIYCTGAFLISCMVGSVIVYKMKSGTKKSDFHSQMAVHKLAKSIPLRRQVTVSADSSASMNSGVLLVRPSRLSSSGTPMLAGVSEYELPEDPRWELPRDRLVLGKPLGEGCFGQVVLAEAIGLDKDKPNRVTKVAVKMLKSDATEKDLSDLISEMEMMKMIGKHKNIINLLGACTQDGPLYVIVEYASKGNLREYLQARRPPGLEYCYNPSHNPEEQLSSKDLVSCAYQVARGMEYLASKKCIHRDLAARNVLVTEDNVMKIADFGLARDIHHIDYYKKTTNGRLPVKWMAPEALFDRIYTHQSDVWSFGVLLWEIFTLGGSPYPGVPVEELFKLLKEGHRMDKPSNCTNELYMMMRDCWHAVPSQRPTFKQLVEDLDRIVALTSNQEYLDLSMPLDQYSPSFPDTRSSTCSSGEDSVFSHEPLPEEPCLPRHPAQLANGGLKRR
Vascular endothelial growth factor receptor 1, sequence (P17948 whole entry): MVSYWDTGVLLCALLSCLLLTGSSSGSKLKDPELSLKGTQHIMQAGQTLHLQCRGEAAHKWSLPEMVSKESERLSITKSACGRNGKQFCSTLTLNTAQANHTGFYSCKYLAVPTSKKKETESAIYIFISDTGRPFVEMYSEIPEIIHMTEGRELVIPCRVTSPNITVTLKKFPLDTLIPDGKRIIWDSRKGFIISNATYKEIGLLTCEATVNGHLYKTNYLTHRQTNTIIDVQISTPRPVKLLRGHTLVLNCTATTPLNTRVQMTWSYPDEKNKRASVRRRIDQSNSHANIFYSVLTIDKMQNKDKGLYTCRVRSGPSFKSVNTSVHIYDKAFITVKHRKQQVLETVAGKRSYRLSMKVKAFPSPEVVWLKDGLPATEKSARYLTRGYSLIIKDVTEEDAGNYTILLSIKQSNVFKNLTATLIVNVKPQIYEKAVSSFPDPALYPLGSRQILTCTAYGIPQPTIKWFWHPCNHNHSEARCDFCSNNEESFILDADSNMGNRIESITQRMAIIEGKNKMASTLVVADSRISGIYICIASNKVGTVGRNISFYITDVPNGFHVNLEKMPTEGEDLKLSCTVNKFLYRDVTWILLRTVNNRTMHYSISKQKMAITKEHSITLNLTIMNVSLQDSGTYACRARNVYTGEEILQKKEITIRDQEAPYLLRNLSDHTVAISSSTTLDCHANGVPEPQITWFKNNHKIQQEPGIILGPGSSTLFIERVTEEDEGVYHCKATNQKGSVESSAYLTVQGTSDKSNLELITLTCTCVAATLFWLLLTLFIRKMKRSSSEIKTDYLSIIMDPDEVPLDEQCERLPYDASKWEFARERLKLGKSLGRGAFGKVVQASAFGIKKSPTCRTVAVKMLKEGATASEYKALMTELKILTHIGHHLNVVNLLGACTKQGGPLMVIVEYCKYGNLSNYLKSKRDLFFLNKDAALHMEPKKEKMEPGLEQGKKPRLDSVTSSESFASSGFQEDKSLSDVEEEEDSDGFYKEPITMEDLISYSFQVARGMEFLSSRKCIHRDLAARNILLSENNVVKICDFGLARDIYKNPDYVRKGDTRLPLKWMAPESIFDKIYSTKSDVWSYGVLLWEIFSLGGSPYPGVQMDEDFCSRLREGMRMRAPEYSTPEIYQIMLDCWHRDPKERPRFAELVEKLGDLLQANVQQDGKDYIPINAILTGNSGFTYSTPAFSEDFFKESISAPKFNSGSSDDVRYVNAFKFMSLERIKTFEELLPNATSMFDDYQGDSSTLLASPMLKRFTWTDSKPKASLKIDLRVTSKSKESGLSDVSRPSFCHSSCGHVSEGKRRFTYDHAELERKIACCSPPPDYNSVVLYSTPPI

| Compound | IC50 [1] [nM] | IC50 [2] [nM] | IC50 [3] [nM] | further results |
| --- | --- | --- | --- | --- |
| COc1cc2c(Nc3ccc(Cl)cc3F)ncnc2cc1OCCN1CCOCC1 | 1100 | 19000 | 40 |  |
| COc1cc2c(Nc3ccc(Cl)cc3F)ncnc2cc1OCc1ccncc1 | 1200 | > 33000 | 60 |  |
| COCC(=O)Nc1cc2ncnc(Nc3ccc(Cl)cc3F)c2cc1OC | > 100000 | > 50000 | > 100000 |  |
| COCCOc1ccc2c(Nc3ccc(Cl)cc3F)ncnc2c1 | 1500 | 16000 |  |  |
| COc1cc2c(Nc3ccc(Cl)cc3F)ncnc2cc1OC1CCN(C)CC1 | 15000 | 40000 | 1500 |  |
| COc1cc2c(Nc3ccc(Cl)cc3F)ncnc2cc1OCCCN1CCOCC1 |  | 6700 | 9 | concentration at 6 h [4]: 4 µM; concentration at 24 h [6]: 0.8 µM; inhibition in vivo at 100 mg/kg (Rattus norvegicus [10]): 59% |
| COc1cc2c(Nc3ccc(C#N)cc3F)ncnc2cc1OCCn1ccnn1 | 8100 | 45000 | 300 | IC50 [8]: 3000 nM; IC50 [9]: 600 nM; IC50 (HUVEC): > 10000 nM |
| COc1cc2ncnc(Nc3ccc(Cl)cc3)c2cc1OC | 11000 | > 100000 | 800 |  |
| COc1cc2c(Nc3ccc(Cl)cc3F)ncnc2cc1OCCn1ccnc1 |  |  |  | concentration at 6 h [4]: 11 µM; concentration at 24 h [6]: < 0.1 µM |
| COc1cc2ncnc(Nc3ccc(Cl)cc3F)c2cc1OC |  | 7000 | 100 | inhibition in vivo at 100 mg/kg (Rattus norvegicus [10]): 34% |
| COc1cc2c(Nc3c(F)cc(Br)cc3F)ncnc2cc1OCCn1ccnn1 | 800 |  | 40 | IC50 [8]: 100 nM; IC50 [9]: 20 nM; IC50 (HUVEC): 1000 nM |
| COc1cc2ncnc(Nc3ccc(F)c(Cl)c3)c2cc1OC | > 100000 | > 100000 | 800 |  |
| COc1cc2ncnc(Nc3ccc(F)cc3F)c2cc1OC | 22000 | 58000 | 2900 |  |
| COc1cc2ncnc(Nc3ccccc3F)c2cc1OC | 26000 | > 100000 | 2700 |  |
| COCCOc1cc2nncc(Nc3ccc(Cl)cc3F)c2cc1OC | 63000 |  |  |  |
| COc1cc2c(Nc3ccc(Cl)cc3F)ncnc2cc1OCCn1ccnn1 |  |  |  | concentration at 6 h [4]: 49 µM; concentration at 24 h [6]: 10 µM; IC50 (HUVEC): 5000 nM |
| COc1cc2ncnc(Nc3ccc(I)cc3Cl)c2cc1OC | > 33000 |  |  |  |

Further lines, with some results ahead:

| IC50 [1] [nM] | IC50 [2] [nM] | IC50 [3] [nM] | Compound | further results |
| --- | --- | --- | --- | --- |
| 30 | 2500 | 3 | COc1cc2ncnc(Nc3cc(O)c(C)cc3F)c2cc1OC | concentration at 6 h [4]: < 0.2 µM; inhibition in vivo at 60 mg/kg (Rattus norvegicus [5]): 80%; concentration at 24 h [6]: < 0.2 µM |
| 300 | > 100000 | 300 | COCC(=O)Nc1cc2ncnc(Nc3cc(O)c(C)cc3F)c2cc1OC |  |
| 50 |  |  | COCCOc1cc2nncc(Nc3cc(O)c(Cl)cc3F)c2cc1OC |  |
| 300 | 1500 | 40 | COc1cc2c(Nc3ccc(Cl)cc3F)ncnc2cc1OCCCCN1CCOCC1 |  |
| 500 | 20000 | 60 | COc1cc2c(Nc3ccc(Cl)cc3F)ncnc2cc1OCCOCCN1CCOCC1 | concentration at 6 h [4]: 11 µM; concentration at 24 h [6]: < 0.1 µM |
| 900 | > 100000 | 60 | COCCOc1cc2ncnc(Nc3ccc(Cl)cc3F)c2cc1OCCOC |  |
| 30 | 7000 | < 5 | COCCOc1cc2ncnc(Nc3cccc(O)c3)c2cc1OC | inhibition (Rattus norvegicus [7]): inactive |
| < 2 | 7400 | < 2 | COCCOc1cc2ncnc(Nc3cc(O)c(Cl)cc3F)c2cc1OC | concentration at 6 h [4]: < 0.1 µM; IC50 [8]: 800 nM; concentration at 24 h [6]: < 0.1 µM; IC50 [9]: 4 nM; IC50 (HUVEC): 5000 nM |
| 700 | > 100000 | 30 | COc1cc2c(Nc3ccc(Br)cc3F)ncnc2cc1OCCn1ccnn1 [ZD-4190 FREE BASE] | IC50 [8]: 1500 nM; IC50 (HUVEC): > 10000 nM |
| 200 | 11000 |  | COc1cc2ncnc(Nc3cccc(O)c3)c2cc1OC |  |
| 3 | 1400 | < 2 | COCCOc1cc2nccc(Nc3cc(O)c(Cl)cc3F)c2cc1OC |  |
| 800 |  |  | COc1cc2ncnc(Nc3ccc(I)cc3F)c2cc1OC |  |
| 100 | 1600 | 6 | COc1cc2c(Nc3ccc(Cl)cc3F)ncnc2cc1OCCN(C)c1ccncc1 |  |
| 400 | 27000 | 7 | COCCOc1cc2ncnc(Nc3ccc(Cl)cc3F)c2cc1OC | concentration at 6 h [4]: 12 µM; concentration at 24 h [6]: < 0.1 µM; inhibition in vivo at 100 mg/kg (Rattus norvegicus [10]): 31% |
| 300 | 9300 | 10 | COCCOc1cc2nccc(Nc3ccc(Cl)cc3F)c2cc1OC | concentration at 6 h [4]: 3 µM |
